Where a SMILES comes first, the peptide text is derived from it.
The molecules below were run against T1, EcPBP3 (Escherichia coli, UniProt P0AD68) (assay: SPR binding assay on immobilised EcPBP3). Settings: 37 °C, kinetic fitting; NB = no binding at 2500 nM (Tables S-4, S-5) or 5000 nM (Table 1); read-out: Kd (nM) by SPR (geomean).
T1 construct: For assays, selections and SPR a construct with residues 60–588 which has the N-terminal domain, but not the transmembrane helix, was used; made in house
T1 sequence (P0AD68 60-588): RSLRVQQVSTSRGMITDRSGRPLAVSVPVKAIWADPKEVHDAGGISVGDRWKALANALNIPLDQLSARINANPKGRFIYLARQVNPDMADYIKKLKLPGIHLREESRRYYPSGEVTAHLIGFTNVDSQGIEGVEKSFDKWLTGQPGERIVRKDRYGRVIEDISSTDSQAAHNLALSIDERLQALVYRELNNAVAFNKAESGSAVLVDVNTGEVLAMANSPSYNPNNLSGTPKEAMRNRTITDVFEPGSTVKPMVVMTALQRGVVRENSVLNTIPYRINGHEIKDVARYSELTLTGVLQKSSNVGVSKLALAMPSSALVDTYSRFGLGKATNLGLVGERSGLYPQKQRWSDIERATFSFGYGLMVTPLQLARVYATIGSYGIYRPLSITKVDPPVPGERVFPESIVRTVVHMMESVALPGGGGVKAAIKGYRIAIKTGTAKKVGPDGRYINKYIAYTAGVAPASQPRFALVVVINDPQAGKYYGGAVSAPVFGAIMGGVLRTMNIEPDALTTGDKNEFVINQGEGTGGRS
Method: Surface plasmon resonance (SPR) assays were performed using EcPBP3 immobilized on CM5 sensor chips (GE Healthcare) via amine-coupling chemistry in assay buffer (10 mM HEPES pH 8.0, 200 mM NaCl, 0.05% (v/v) surfactant P20). The chip surface was activated by injection (10 μL min^–1) of 0.4 M EDC and 0.1 M NHS (in a 1:1 ratio) with a 7 min contact time. Protein was diluted to 25 μg mL^–1 in 10 mM MOPS (pH 7.0) and injected over the activated sensor chip surface to reach immobilization of 1500-2500 response units. Excess hydroxysuccinimidyl groups on the chip surface were deactivated by injection (10 μL min^–1) of 1 M ethanolamine hydrochloride pH 8.0 with a 7 min contact time. Reference flow cells were prepared as described, but without ligand (EcPBP3 protein).
Binding analysis runs were performed at 37 °C in running buffer (10 mM HEPES pH 8.0, 200 mM NaCl, 0.05% (w/v) Tween-20, 2% (v/v) DMSO). Test compounds (and control runs of buffer only) were injected in running buffer over the EcPBP3 chip and reference flow cell, at flow rate of 50 μL min^–1 for 150 s contact time and 2400 s dissociation time. Each injection was followed by a wash with 50% (v/v) DMSO. All compounds were tested in at least two independent biological replicates unless otherwise stated.
Raw sensorgrams data were solvent-corrected, reference-subtracted and blank-buffer-subtracted (double-referencing) before kinetic and affinity analysis to account for non-specific binding and injection artifacts. Equilibrium dissociation constant (Kd) values was determined using the Biacore™ Insight Evaluation Software (version 4.0.8 or version 5.0.17) using kinetic fitting. Kd values presented are the geometric mean of at least two biological replicates.
`COc1ccc2[nH]cc(C[C@@H]3NC(=O)[C@@H]4CCCN4C(=O)[C@@H]4CSCCC(=O)N5CN(CN(C5)C(=O)CCSC[C@H](NC(=O)[C@H](C)N)C(=O)N[C@@H](CO)C(=O)N[C@@H](Cc5ccccc5)C(=O)N5CCC[C@H]5C(=O)N[C@@H](CCCCN)C(=O)N4)C(=O)CCSC[C@@H](C(=O)N[C@@H](C)C(N)=O)NC(=O)CNC(=O)[C@H](CCC(=O)O)NC(=O)[C@H](C(C)C)NC3=O)c2c1` [Peptide 63] was tested, and the Kd was 175 nM.
For `Cc1ccccc1C[C@@H]1NC(=O)[C@H](CO)NC(=O)[C@@H](NC(=O)[C@H](C)N)CSCCC(=O)N2CN3CN(C2)C(=O)CCSC[C@H](NC(=O)[C@H](CCCCN)NC(=O)[C@@H]2CCCN2C1=O)C(=O)N1CCC[C@H]1C(=O)N[C@@H](Cc1c[nH]c2ccccc12)C(=O)N[C@@H](C(C)C)C(=O)N[C@@H](CCC(=O)O)C(=O)NCC(=O)N[C@H](C(=O)N[C@@H](C)C(N)=O)CSCCC3=O` [Peptide 57], the Kd was 22.3 nM.
With `CC(C)[C@@H]1NC(=O)[C@H](Cc2c[nH]c3ccccc23)NC(=O)[C@@H]2CCCN2C(=O)[C@@H]2CSCCC(=O)N3CN(CN(C3)C(=O)CCSC[C@H](NC(=O)[C@H](C)N)C(=O)N[C@@H](CO)C(=O)N[C@@H](Cc3ccncc3)C(=O)N3CCC[C@H]3C(=O)N[C@@H](CCCCN)C(=O)N2)C(=O)CCSC[C@@H](C(=O)N[C@@H](C)C(N)=O)NC(=O)CNC(=O)[C@H](CCC(=O)O)NC1=O` [Peptide 59] (HELM PEPTIDE1{A.C.S.[O=C([C@H](Cc1ccncc1)N[*:1])[*:2]].P.K.C.P.W.V.E.G.C.A.[am]}|CHEM1{[O=C(CC[*:1])N1CN(C(=O)CC[*:2])CN(C(=O)CC[*:3])C1]}$PEPTIDE1,CHEM1,2:R3-1:R1|PEPTIDE1,CHEM1,7:R3-1:R2|PEPTIDE1,CHEM1,13:R3-1:R3$$$V2.0) the Kd was 121 nM.
Molecule `CC(C)[C@@H]1NC(=O)[C@H](Cc2c[nH]c3cc(F)ccc23)NC(=O)[C@@H]2CCCN2C(=O)[C@@H]2CSCCC(=O)N3CN(CN(C3)C(=O)CCSC[C@H](NC(=O)[C@H](C)N)C(=O)N[C@@H](CO)C(=O)N[C@@H](Cc3ccccc3)C(=O)N3CCC[C@H]3C(=O)N[C@@H](CCCCN)C(=O)N2)C(=O)CCSC[C@@H](C(=O)N[C@@H](C)C(N)=O)NC(=O)CNC(=O)[C@H](CCC(=O)O)NC1=O` [Peptide 66] has a Kd of 0.489 nM.
`CC(C)[C@@H]1NC(=O)[C@H](Cc2c[nH]c3ccccc23)NC(=O)[C@@H]2CCCN2C(=O)[C@@H]2CSCCC(=O)N3CN(CN(C3)C(=O)CCSC[C@H](NC(=O)[C@H](C)N)C(=O)N[C@@H](CO)C(=O)N[C@@H](Cc3cccc(F)c3)C(=O)N3CCC[C@H]3C(=O)N[C@@H](CCCCN)C(=O)N2)C(=O)CCSC[C@@H](C(=O)N[C@@H](C)C(N)=O)NC(=O)CNC(=O)[C@H](CCC(=O)O)NC1=O` [Peptide 55] gave a Kd of 16.8 nM.
`CC(C)[C@@H]1NC(=O)[C@H](Cc2cnc3ccccc3c2)NC(=O)[C@@H]2CCCN2C(=O)[C@@H]2CSCCC(=O)N3CN(CN(C3)C(=O)CCSC[C@H](NC(=O)[C@H](C)N)C(=O)N[C@@H](CO)C(=O)N[C@@H](Cc3ccccc3)C(=O)N3CCC[C@H]3C(=O)N[C@@H](CCCCN)C(=O)N2)C(=O)CCSC[C@@H](C(=O)N[C@@H](C)C(N)=O)NC(=O)CNC(=O)[C@H](CCC(=O)O)NC1=O` [Peptide 62] was tested, and the Kd was 27 nM.
`CC(C)[C@@H]1NC(=O)[C@H](Cc2c[nH]c3ccccc23)NC(=O)[C@@H]2CCCN2C(=O)[C@@H]2CSCCC(=O)N3CN(CN(C3)C(=O)CCSC[C@H](NC(=O)[C@H](C)N)C(=O)N[C@@H](CO)C(=O)N[C@@H](C)C(=O)N3CCC[C@H]3C(=O)N[C@@H](CCCCN)C(=O)N2)C(=O)CCSC[C@@H](C(=O)N[C@@H](C)C(N)=O)NC(=O)CNC(=O)[C@H](CCC(=O)O)NC1=O` [Peptide 17] was tested, and the Kd was > 2500 nM.
Work on `Cc1ccc(C[C@@H]2NC(=O)[C@H](CO)NC(=O)[C@@H](NC(=O)[C@H](C)N)CSCCC(=O)N3CN4CN(C3)C(=O)CCSC[C@H](NC(=O)[C@H](CCCCN)NC(=O)[C@@H]3CCCN3C2=O)C(=O)N2CCC[C@H]2C(=O)N[C@@H](Cc2c[nH]c3ccccc23)C(=O)N[C@@H](C(C)C)C(=O)N[C@@H](CCC(=O)O)C(=O)NCC(=O)N[C@H](C(=O)N[C@@H](C)C(N)=O)CSCCC4=O)cc1` [Peptide 58] yielded a Kd of 5.06 nM.
Molecule `CC(C)[C@@H]1NC(=O)[C@H](Cc2c[nH]c3ccccc23)NC(=O)[C@@H]2CCCN2C(=O)[C@@H]2CSCCC(=O)N3CN(CN(C3)C(=O)CCSC[C@H](NC(=O)[C@H](C)N)C(=O)N[C@@H](CO)C(=O)N[C@@H](CCc3ccccc3)C(=O)N3CCC[C@H]3C(=O)N[C@@H](CCCCN)C(=O)N2)C(=O)CCSC[C@@H](C(=O)N[C@@H](C)C(N)=O)NC(=O)CNC(=O)[C@H](CCC(=O)O)NC1=O` [Peptide 61] has a Kd of 232 nM.
In the case of `CC(C)[C@@H]1NC(=O)[C@H](Cc2c[nH]c3ccccc23)NC(=O)[C@H](C)NC(=O)[C@@H]2CSCCC(=O)N3CN(CN(C3)C(=O)CCSC[C@H](NC(=O)[C@H](C)N)C(=O)N[C@@H](CO)C(=O)N[C@@H](Cc3ccccc3)C(=O)N3CCC[C@H]3C(=O)N[C@@H](CCCCN)C(=O)N2)C(=O)CCSC[C@@H](C(=O)N[C@@H](C)C(N)=O)NC(=O)CNC(=O)[C@H](CCC(=O)O)NC1=O` [Peptide 20], the Kd is reported as 1380 nM.
In the case of `C[C@H](N)C(=O)N[C@H]1CSCCC(=O)N2CN3CN(C2)C(=O)CCSC[C@H](NC(=O)[C@H](CCCCN)NC(=O)[C@@H]2CCCN2C(=O)[C@H](Cc2ccccc2)NC(=O)[C@H](CO)NC1=O)C(=O)N1CCC[C@H]1C(=O)N[C@@H](Cc1c[nH]c2ccccc12)C(=O)N[C@@H](C1CCC1)C(=O)N[C@@H](CCC(=O)O)C(=O)NCC(=O)N[C@H](C(=O)N[C@@H](C)C(N)=O)CSCCC3=O` [Peptide 68] (HELM PEPTIDE1{A.C.S.F.P.K.C.P.W.[O=C([C@@H](N[*:1])C1CCC1)[*:2]].E.G.C.A.[am]}|CHEM1{[O=C(CC[*:1])N1CN(C(=O)CC[*:2])CN(C(=O)CC[*:3])C1]}$PEPTIDE1,CHEM1,2:R3-1:R1|PEPTIDE1,CHEM1,7:R3-1:R2|PEPTIDE1,CHEM1,13:R3-1:R3$$$V2.0), the Kd is reported as 187 nM.
`CC(C)[C@@H]1NC(=O)[C@H](Cc2c[nH]c3cc(Cl)ccc23)NC(=O)[C@@H]2CCCN2C(=O)[C@@H]2CSCCC(=O)N3CN(CN(C3)C(=O)CCSC[C@H](NC(=O)[C@H](C)N)C(=O)N[C@@H](CO)C(=O)N[C@@H](Cc3ccccc3)C(=O)N3CCC[C@H]3C(=O)N[C@@H](CCCCN)C(=O)N2)C(=O)CCSC[C@@H](C(=O)N[C@@H](C)C(N)=O)NC(=O)CNC(=O)[C@H](CCC(=O)O)NC1=O` [Peptide 65] gave a Kd of 0.269 nM.
Molecule `CC(C)[C@@H]1NC(=O)[C@H](Cc2c[nH]c3ccccc23)NC(=O)[C@@H]2CCCN2C(=O)[C@@H]2CSCCC(=O)N3CN(CN(C3)C(=O)CCSC[C@H](NC(=O)[C@H](C)N)C(=O)N[C@@H](CO)C(=O)N[C@@H](Cc3ccccn3)C(=O)N3CCC[C@H]3C(=O)N[C@@H](CCCCN)C(=O)N2)C(=O)CCSC[C@@H](C(=O)N[C@@H](C)C(N)=O)NC(=O)CNC(=O)[C@H](CCC(=O)O)NC1=O` [Peptide 60] (HELM PEPTIDE1{A.C.S.[O=C([C@H](Cc1ccccn1)N[*:1])[*:2]].P.K.C.P.W.V.E.G.C.A.[am]}|CHEM1{[O=C(CC[*:1])N1CN(C(=O)CC[*:2])CN(C(=O)CC[*:3])C1]}$PEPTIDE1,CHEM1,2:R3-1:R1|PEPTIDE1,CHEM1,7:R3-1:R2|PEPTIDE1,CHEM1,13:R3-1:R3$$$V2.0) has a Kd of 122 nM.
`CC(C)[C@@H]1NC(=O)[C@H](Cc2c[nH]c3ccccc23)NC(=O)[C@@H]2CCCN2C(=O)[C@@H]2CSCCC(=O)N3CN(CN(C3)C(=O)CCSC[C@H](NC(=O)[C@H](C)N)C(=O)N[C@@H](CO)C(=O)N[C@@H](Cc3c(F)c(F)c(F)c(F)c3F)C(=O)N3CCC[C@H]3C(=O)N[C@@H](CCCCN)C(=O)N2)C(=O)CCSC[C@@H](C(=O)N[C@@H](C)C(N)=O)NC(=O)CNC(=O)[C@H](CCC(=O)O)NC1=O` [Peptide 54] was tested, and the Kd was 701 nM.
In the case of `C[C@H](N)C(=O)N[C@H]1CSCCC(=O)N2CN3CN(C2)C(=O)CCSC[C@H](NC(=O)[C@H](CCCCN)NC(=O)[C@@H]2CCCN2C(=O)[C@H](Cc2ccccc2)NC(=O)[C@H](CO)NC1=O)C(=O)N1CCC[C@H]1C(=O)N[C@@H](Cc1c[nH]c2ccccc12)C(=O)N[C@@H](C(C)(C)C)C(=O)N[C@@H](CCC(=O)O)C(=O)NCC(=O)N[C@H](C(=O)N[C@@H](C)C(N)=O)CSCCC3=O` [Peptide 67] (HELM PEPTIDE1{A.C.S.F.P.K.C.P.W.[CC(C)(C)[C@H](N[*:1])C(=O)[*:2]].E.G.C.A.[am]}|CHEM1{[O=C(CC[*:1])N1CN(C(=O)CC[*:2])CN(C(=O)CC[*:3])C1]}$PEPTIDE1,CHEM1,2:R3-1:R1|PEPTIDE1,CHEM1,7:R3-1:R2|PEPTIDE1,CHEM1,13:R3-1:R3$$$V2.0), the Kd is reported as 574 nM.
Work on `CC(C)[C@@H]1NC(=O)[C@H](Cc2c[nH]c3ccccc23)NC(=O)[C@@H]2CCCN2C(=O)[C@@H]2CSCCC(=O)N3CN(CN(C3)C(=O)CCSC[C@H](NC(=O)[C@H](C)N)C(=O)N[C@@H](CO)C(=O)N[C@@H](Cc3ccccc3F)C(=O)N3CCC[C@H]3C(=O)N[C@@H](CCCCN)C(=O)N2)C(=O)CCSC[C@@H](C(=O)N[C@@H](C)C(N)=O)NC(=O)CNC(=O)[C@H](CCC(=O)O)NC1=O` [Peptide 56] yielded a Kd of 56.6 nM.

Same assay, conditions: hydrophobic extension of Trp6, relative to parent peptide
For `CC(C)[C@@H]1NC(=O)[C@H](Cc2c[nH]c3cc(F)ccc23)NC(=O)[C@@H]2CCCN2C(=O)[C@@H]2CSCCC(=O)N3CN(CN(C3)C(=O)CCSC[C@H](NC(=O)[C@H](C)N)C(=O)N[C@@H](CO)C(=O)N[C@@H](Cc3ccccc3)C(=O)N3CCC[C@H]3C(=O)N[C@@H](CCCCN)C(=O)N2)C(=O)CCSC[C@@H](C(=O)N[C@@H](C)C(N)=O)NC(=O)CNC(=O)[C@H](CCC(=O)O)NC1=O` [Peptide 66], the “Improvement in binding affinity” value was “More than 10 fold”.
`CC(C)[C@@H]1NC(=O)[C@H](Cc2c[nH]c3cc(Cl)ccc23)NC(=O)[C@@H]2CCCN2C(=O)[C@@H]2CSCCC(=O)N3CN(CN(C3)C(=O)CCSC[C@H](NC(=O)[C@H](C)N)C(=O)N[C@@H](CO)C(=O)N[C@@H](Cc3ccccc3)C(=O)N3CCC[C@H]3C(=O)N[C@@H](CCCCN)C(=O)N2)C(=O)CCSC[C@@H](C(=O)N[C@@H](C)C(N)=O)NC(=O)CNC(=O)[C@H](CCC(=O)O)NC1=O` [Peptide 65] was tested, and the “Improvement in binding affinity” value was “More than 10 fold”.
